Assay results from patent US5374733A, “Sweetening agent derived from L-aspartic or L-glutamic acid” (priority 1989, dated 1994).
Read-outs that look alike come from different tables or passages of the source.

Key:
[1] = cited from earlier work; for sweetening potency: prior art and aspartame, sucrose concentration not given
[2] = Stability: accelerated ageing in aqueous solution at pH 3 and 70° C., remaining product by HPLC (half-life); format: physicochemical; conditions: phosphate buffer, pH 3, accelerated ageing, pH 3, 70° C., read-out: half-life (converted)
Protocol: The stability of the compounds of the invention, in particular those containing the L-glutamyl residue, is very high and can in certain cases be about three hundred times greater than that of the compounds of the prior art.
The stability of the compounds of the prior art and those of the invention is measured using high performance liquid chromatography to determine the amount of product remaining after accelerated ageing in an acid medium (phosphate buffer at pH 3) and at high temperature (70° C.). Under these experimental conditions, measurement of the half-life (time corresponding to 50% degradation) makes it possible to evaluate the potential stability of the compounds tested in this way. A compound of low stability will have a very short half-life of only a few hours, whereas a very stable compound will have a half-life of several tens of days, as is the case, for example, of compounds (5) and (6) of the invention, which have a half-life of about 60 days (FIG. 1).

| half-life ([2]; prior art compounds) [h] | half-life [2] [h] | Compound | sweetening potency (SP) ([1]; JP-A-87-252754, text, by comparison with a 5% solution of sucrose) | SP ([1]; Table 1, JP-A-87-252754, by comparison with a 5% solution of sucrose) | sweetening potency [1] | SP ([1]; Table 2, EP-A-0.338.946, sucrose concentration not stated) |
| --- | --- | --- | --- | --- | --- | --- |
| ~8 | – | N#Cc1ccc(NC(=O)[C@H](CC(=O)O)NC(=O)c2ccccc2)cc1 [compound (3)] | 720 times that of sucrose | 720 times that of sucrose | 720 times that of sucrose | – |
| – | ~48 | N#Cc1ccc(NC(=O)[C@H](CC(=O)O)NCc2ccccc2)cc1 [compound (4)] | – | – | 1000 times that of sucrose | 1000 |
